Source: patent US20210161135A1, “WEED CONTROL FROM APPLICATIONS OF PYRIDINE CARBOXYLIC ACID HERBICIDES AND 4-HYDROXYPHENYL-PYRUVATE DIOXYGENASE (HPPD) INHIBITORS” (Dow AgroSciences LLC, priority 2018, published 2021)

How the values were obtained:
Experiment in all cases: Postemergence herbicidal activity, greenhouse, visual injury after 20-22 d
Type in all cases: in vivo
[1] = tested on: common lambsquarters (Chenopodium album L., CHEAL)
Experimental: (§1) Seeds of the desired test plant species were planted in Sun Gro MetroMix® 306 planting mixture, which typically has a pH of 6.0 to 6.8 and an organic matter content of about 30 percent, in plastic pots with a surface area of 103.2 square centimeters (cm^2). When required to ensure good germination and healthy plants, a fungicide treatment and/or other chemical or physical treatment was applied. The plants were grown for 7-36 days (d) in a greenhouse with an approximate 14-hour (h) photoperiod which was maintained at about 23° C. during the day and 22° C. during the night. Nutrients and water were added on a regular basis and supplemental lighting was provided with overhead metal halide 1000-Watt lamps as necessary. The plants were employed for testing when they reached the second or third true leaf stage.
(§2) An emulsifiable concentrate (EC) formulation containing Compound 1 at 100 gai/L was prepared by combining Compound 1 with 1-butyl-2-pyrrolidinone (Tamisolve NxG; 360.5 g/L), benzyl acetate (544.6 g/L) and Agnique MBL 520L surfactant (52.9 g/L). […] The concentrated stock solutions were diluted with an aqueous mixture of 1.5% v/v of Agri-dex crop oil concentrate to provide the appropriate application rates. Compound requirements are based upon a 12 milliliter (mL) application volume at a rate of 187 liters per hectare (L/ha). Spray solutions of the experimental compound mixtures were prepared by adding the stock solutions to the appropriate amount of dilution solution to form a 12 mL spray solution in two-way combinations. Formulated compounds were applied to the plant material with an overhead Mandel track sprayer equipped with 8002E nozzles calibrated to deliver 187 L/ha over an application area of 0.503 square meters (m^2) at a spray height of […] above average plant canopy. Control plants were sprayed in the same manner with the solvent blank. Application rates for component (a) are in g ai/ha, and application rates for component (b) are in g ai/ha.
(§3) The treated plants and control plants were placed in a greenhouse as described above and watered by sub-irrigation to prevent wash-off of the test compounds. After 20-22 d, the condition of the test plants as compared with that of the control plants was determined visually and scored on a scale of 0 to 100 percent where 0 corresponds to no injury and 100 corresponds to complete kill. […] The Colby method was used to determine the herbicidal effects expected from the mixtures.

[2] = tested on: giant foxtail (Setaria faberi, SETFA)
Experimental: as §1, §2, §3

[3] = tested on: kochia (Kochia scoparia, KCHSC)
Experimental: as §1, §2, §3

[4] = tested on: poinsettia (Euphorbia heterophylla, EPHHL)
Experimental: as §1, §2, §3

[5] = tested on: spring rape (Brassica napus, BRSNN)
Experimental: as §1, §2, §3

[6] = tested on: thistle (Cirsium arvense CIRAR)
Experimental: as §1, §2, §3

[7] = tested on: velvetleaf (Abutilon theophrasti, ABUTH)
Experimental: as §1, §2, §3

[8] = tested on: wild buckwheat (Polygonum convolvulus, POLCO)
Experimental: as §1, §2, §3

[9] = tested on: wild pansy (Viola tricolor, VIOTR)
Experimental: as §1, §2, §3

[10] = tested on: barnyardgrass (Echinochloa crus-galli, ECHCG); details: two trials
Experimental: as §1, §2, §3

[11] = tested on: common chickweed (Stellaria media, STEME); details: two trials
Experimental: as §1, §2, §3

[12] = tested on: grain sorghum (Sorghum vulgare, SORVU); details: two trials
Experimental: as §1, §2, §3

[13] = tested on: ivyleaf morningglory (Ipomoea hederacea, IPOHE); details: two trials
Experimental: as §1, §2, §3

[14] = tested on: large crabgrass (Digitaria sanguinalis, DIGSA); details: two trials
Experimental: as §1, §2, §3

[15] = tested on: maize (Zea mays, ZEAMX); details: two trials
Experimental: as §1, §2, §3

[16] = tested on: pigweed (Amaranthus retroflexus, AMARE); details: two trials
Experimental: as §1, §2, §3

[17] = tested on: rice (Oryza sativa, ORYSA); details: two trials
Experimental: as §1, §2, §3

[18] = tested on: soybean (Glycine max, GLXMA); details: two trials
Experimental: as §1, §2, §3

[19] = tested on: sunflower (Helianthus annuus, HELAN); details: two trials
Experimental: as §1, §2, §3

[20] = tested on: wild oat (Avena fatua, AVEFA); details: two trials
Experimental: as §1, §2, §3

[21] = tested on: winter rape (Brassica napus, BRSNW); details: two trials
Experimental: as §1, §2, §3

[22] = tested on: winter wheat (Triticum aestivum, TRZAW); details: two trials
Experimental: as §1, §2, §3

[23] = Compound 1 5 g ai/ha alone, Tables 4-5
[24] = Compound 1 5 g ai/ha alone, two trials
[25] = Compound 1 10 g ai/ha alone, Tables 4-5
[26] = Compound 1 10 g ai/ha alone, two trials
[27] = HPPD inhibitor 35 g ai/ha alone
[28] = HPPD inhibitor 35 g ai/ha alone, two trials

CS(=O)(=O)c1ccc(C(=O)C2=C(Sc3ccccc3)C3CCC(C3)C2=O)c(Cl)c1 (stereo not drawn) [Benzobicyclon, 3-[2-chloro-4-(methylsulfonyl)benzoyl]-4-(phenylthio)bicyclo[3.2.1]oct-3-en-2-one]
Effect (% visual injury), Obs ([1]; Benzobicyclon 50 g ai/ha alone): 100% | Effect (% visual injury), Obs ([2]; Benzobicyclon 50 g ai/ha alone): 0% | Effect (% visual injury), Obs ([3]; Benzobicyclon 50 g ai/ha alone): 10% | Effect (% visual injury), Obs ([4]; Benzobicyclon 50 g ai/ha alone): 5% | Effect (% visual injury), Obs ([5]; Benzobicyclon 50 g ai/ha alone): 0% | Effect (% visual injury), Obs ([6]; Benzobicyclon 50 g ai/ha alone): 20% | Effect (% visual injury), Obs ([7]; Benzobicyclon 50 g ai/ha alone): 25% | Effect (% visual injury), Obs ([8]; Benzobicyclon 50 g ai/ha alone): 0% | Effect (% visual injury), Obs ([9]; Benzobicyclon 50 g ai/ha alone): 10%

Nc1c(F)c(-c2ccc3cc[nH]c3c2F)nc(C(=O)O)c1Cl [Compound 1]
Effect (% visual injury), Obs ([10]; Compound 1 5 g ai/ha alone): 20% | Effect (% visual injury), Obs ([10]; Compound 1 10 g ai/ha alone): 60% | Effect (% visual injury), Obs ([11]; Compound 1 5 g ai/ha alone): 70% | Effect (% visual injury), Obs ([11]; Compound 1 10 g ai/ha alone): 70% | Effect (% visual injury), Obs [1, 23]: 90% | Effect (% visual injury), Obs [1, 24]: 90% | Effect (% visual injury), Obs [1, 25]: 95% | Effect (% visual injury), Obs [1, 26]: 98% | Effect (% visual injury), Obs [2, 23]: 50% | Effect (% visual injury), Obs [2, 24]: 30% | Effect (% visual injury), Obs [2, 25]: 75% | Effect (% visual injury), Obs [2, 26]: 63% | Effect (% visual injury), Obs ([12]; Compound 1 5 g ai/ha alone): 0% | Effect (% visual injury), Obs ([12]; Compound 1 10 g ai/ha alone): 50% | Effect (% visual injury), Obs ([13]; Compound 1 5 g ai/ha alone): 10% | Effect (% visual injury), Obs ([13]; Compound 1 10 g ai/ha alone): 10% | Effect (% visual injury), Obs [3, 23]: 65% | Effect (% visual injury), Obs [3, 24]: 63% | Effect (% visual injury), Obs [3, 25]: 75% | Effect (% visual injury), Obs [3, 26]: 68% | Effect (% visual injury), Obs ([14]; Compound 1 5 g ai/ha alone): 0% | Effect (% visual injury), Obs ([14]; Compound 1 10 g ai/ha alone): 10% | Effect (% visual injury), Obs ([15]; Compound 1 5 g ai/ha alone): 0% | Effect (% visual injury), Obs ([15]; Compound 1 10 g ai/ha alone): 0% | Effect (% visual injury), Obs ([16]; Compound 1 5 g ai/ha alone): 75% | Effect (% visual injury), Obs ([16]; Compound 1 10 g ai/ha alone): 97% | Effect (% visual injury), Obs [4, 23]: 75% | Effect (% visual injury), Obs [4, 24]: 86% | Effect (% visual injury), Obs [4, 25]: 100% | Effect (% visual injury), Obs [4, 26]: 99% | Effect (% visual injury), Obs ([17]; Compound 1 5 g ai/ha alone): 0% | Effect (% visual injury), Obs ([17]; Compound 1 10 g ai/ha alone): 10% | Effect (% visual injury), Obs ([18]; Compound 1 5 g ai/ha alone): 95% | Effect (% visual injury), Obs ([18]; Compound 1 10 g ai/ha alone): 100% | Effect (% visual injury), Obs [5, 23]: 50% | Effect (% visual injury), Obs [5, 24]: 50% | Effect (% visual injury), Obs [5, 25]: 80% | Effect (% visual injury), Obs [5, 26]: 80% | Effect (% visual injury), Obs ([19]; Compound 1 5 g ai/ha alone): 90% | Effect (% visual injury), Obs ([19]; Compound 1 10 g ai/ha alone): 90% | Effect (% visual injury), Obs [6, 23]: 50% | Effect (% visual injury), Obs [6, 24]: 50% | Effect (% visual injury), Obs [6, 25]: 60% | Effect (% visual injury), Obs [6, 26]: 60% | Effect (% visual injury), Obs [7, 23]: 50% | Effect (% visual injury), Obs [7, 24]: 50% | Effect (% visual injury), Obs [7, 25]: 50% | Effect (% visual injury), Obs [7, 26]: 55% | Effect (% visual injury), Obs [8, 23]: 40% | Effect (% visual injury), Obs [8, 24]: 53% | Effect (% visual injury), Obs [8, 25]: 40% | Effect (% visual injury), Obs [8, 26]: 58% | Effect (% visual injury), Obs ([20]; Compound 1 5 g ai/ha alone): 0% | Effect (% visual injury), Obs ([20]; Compound 1 10 g ai/ha alone): 0% | Effect (% visual injury), Obs [9, 23]: 10% | Effect (% visual injury), Obs [9, 24]: 8% | Effect (% visual injury), Obs [9, 25]: 15% | Effect (% visual injury), Obs [9, 26]: 13% | Effect (% visual injury), Obs ([21]; Compound 1 5 g ai/ha alone): 40% | Effect (% visual injury), Obs ([21]; Compound 1 10 g ai/ha alone): 45% | Effect (% visual injury), Obs ([22]; Compound 1 5 g ai/ha alone): 0% | Effect (% visual injury), Obs ([22]; Compound 1 10 g ai/ha alone): 0%

CS(=O)(=O)c1cc(C(F)(F)F)ccc1C(=O)c1cnoc1C1CC1 [Isoxaflutole, (5-cyclopropyl-4-isoxazolyl)[2-(methylsulfonyl)-4-(trifluoromethyl)phenyl]methanone]
Effect (% visual injury), Obs [10, 27]: 25% | Effect (% visual injury), Obs [11, 27]: 10% | Effect (% visual injury), Obs [1, 28]: 99% | Effect (% visual injury), Obs [2, 28]: 97% | Effect (% visual injury), Obs [12, 27]: 0% | Effect (% visual injury), Obs [13, 27]: 70% | Effect (% visual injury), Obs [3, 28]: 90% | Effect (% visual injury), Obs [14, 27]: 50% | Effect (% visual injury), Obs [15, 27]: 0% | Effect (% visual injury), Obs [16, 27]: 95% | Effect (% visual injury), Obs [4, 28]: 43% | Effect (% visual injury), Obs [17, 27]: 30% | Effect (% visual injury), Obs [18, 27]: 75% | Effect (% visual injury), Obs [5, 28]: 85% | Effect (% visual injury), Obs [19, 27]: 90% | Effect (% visual injury), Obs [6, 28]: 75% | Effect (% visual injury), Obs [7, 28]: 45% | Effect (% visual injury), Obs [8, 28]: 10% | Effect (% visual injury), Obs [20, 27]: 60% | Effect (% visual injury), Obs [9, 28]: 45% | Effect (% visual injury), Obs [21, 27]: 60% | Effect (% visual injury), Obs [22, 27]: 15%
